Reference: patent publication US20230041692A1, “NOVEL PEPTIDE HORMONES” (THE UNIVERSITY OF SYDNEY, priority 2019, published 2023)

Tested on: C57BL/6J male mice
Test: Crossover peptide injection trial in mice (food intake and body weight)
Assay type: in vivo
Details: intraperitoneal injection at 5pm, change measured 16 h after injection, C57BL/6J male mice at 14 weeks, compared to vehicle injection
Experimental: FIG. 6: Analysis of erusiolin producing cells, secretion in response to food and effects of erusiolin injection in mice. […] Staining is consistent with erusiolin positivity in rare enteroendocrine cell populations. […] Each line is one participant. […] Animals were randomised to the sequence of treatment days that were random in order, with washout days between injection treatment days. Peptides were injected at 5pm before the night phase and the change in body weight and food intake measured after 16 h. (n=14) ***P<0.001,*P<0.05. Erusiolin refers to the synthetic peptide of sequence APFLLEDPANQFLRL (SEQ ID NO: 2), DPP4-cleaved refers to the synthetic peptide of sequence FLLEDPANQFLRL (SEQ ID NO: 3).
In these experiments “erusiolin” refers to the synthetic peptide of sequence APFLLEDPANQFLRL (SEQ ID NO: 2), “DPP4-cleaved” refers to the synthetic peptide of sequence FLLEDPANQFLRL (SEQ ID NO: 3). These peptides were synthesised and purified as the TFA-salt by a commercial supplier (Genscript), which generated 10 mg of each peptide at >90% purity. TFA removal and formation of the HCL-peptide salt was performed by freeze-drying the peptide solution (in LC-grade H2O) for 16 h and resuspension in 500 uL of 10 mM HC1 in LC-grade H2O. This solution was then freeze-dried for 16 h. A total of three rounds of 10 mM HC1 resuspension and freeze-drying for 16 h were performed. After the final drying step, the peptides were resuspended in LC-grade H2O. The peptide solutions were analysed for TFA contamination and determination of the peptide concentration using FT-IR spectroscopy. No TFA contamination was observed and the final peptide concentrations were 5 mg/mL in LC-grade H2O. Peptides were diluted in vehicle (1 mg/ml mouse albumin in PBS) before injection.
C57BL/6J male mice at 14 weeks of age were treated with either vehicle, erusiolin, or the DPP4-cleaved peptide in a crossover trial study using intraperitoneal injection of the peptides. Each mouse was randomly allocated to a sequence of treatments. Each sequence had treatments in a random order. One treatment was performed per mouse per day and injections were at 5pm just before the night feeding period. Between each treatment day a washout day was included where no injection was performed to allow the previous days treatment to be degraded and minimise confounding effects. The food intake and body weight of each animal was measured just prior to injection and again 16 h after injection. This enable the calculation of the mass delta (change) for food intake and body mass. A repeated-measures one-way ANOVA was used to determine significance between the vehicle negative control treatment and the other treatments. Statistical analyses were performed using R (version 3.4.3) and processed data was plotted using Tableau (version 10.0.2). […]

With APFLLEDPANQFLRL [erusiolin] the body weight was “significant decrease” and the food intake was “significant decrease”.

In the case of FLLEDPANQFLRL [DPP4-cleaved], the body weight is reported as “not significant or less significant” and the food intake is reported as “not significant or less significant”.
